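Abbreviation: GI50, concentration required for 50% inhibition of growth. Definition used: TGI = concentration required for complete inhibition of growth.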
Legend:
Test in all cases: DTP human tumour cell line panel, 384-well format
[1] = system: SF-295 CNS
[2] = system: EKVX NSCLC
[3] = system: SNB-75 CNS
[4] = system: A549 NSCLC
[5] = system: HCT-15 colon
[6] = system: OVCAR-3 ovarian
[7] = system: HS 578T breast
[8] = system: RPMI-8226 leukemia
[9] = system: RXF 393 renal
[10] = system: HOP-92 NSCLC
[11] = system: MOLT-4 leukemia
[12] = system: MDA-MB-435 melanoma
[13] = system: SF-539 CNS
[14] = system: A498 renal
[15] = system: KM12 colon
[16] = system: HT29 colon
[17] = system: SK-MEL-28 melanoma
[18] = system: UACC-257 melanoma
[19] = system: HL-60(TB) leukemia
[20] = system: NCI-H322M lung
[21] = system: MALME-3M melanoma
[22] = system: MCF7 breast
[23] = system: SN12C renal
[24] = system: CCRF-CEM leukemia
[25] = system: NCI-H23 lung
[26] = system: TK-10 renal
[27] = system: DU-145 prostate
[28] = system: ACHN renal
[29] = system: T-47D breast
[30] = system: NCI-H226 lung
[31] = system: SK-MEL-2 melanoma
[32] = system: U251 glioblastoma
[33] = system: PC-3 prostate
[34] = system: NCI-H460 NSCLC
[35] = system: MDA-MB-231 breast
[36] = system: SF-268 CNS
[37] = system: UACC-62 melanoma
[38] = system: SR leukemia
[39] = system: SK-OV-3 ovarian
[40] = system: OVCAR-5 ovarian
[41] = system: SNB-19 CNS
[42] = system: 786-0 renal
[43] = system: HOP-62 NSCLC
[44] = system: HCC-2998 colon
[45] = system: NCI-H522 lung
[46] = system: SK-MEL-5 melanoma
[47] = system: MDA-MB-468 breast
[48] = system: M14 melanoma
[49] = system: IGROV1 ovarian
[50] = system: COLO 205 colon
[51] = system: OVCAR-8 ovarian
[52] = system: BT-549 breast
[53] = system: CAKI-1 renal
[54] = system: OVCAR-4 ovarian
[55] = system: SW-620 colon
[56] = system: NCI/ADR-RES ovarian

## CC(=O)c1cc2c(o1)C(=O)c1ccccc1C2=O
[1]
  GI50: 126 nM
  TGI: 255 nM
[2]
  GI50: 363 nM
  TGI: 1470 nM
[3]
  GI50: 34.1 nM
  TGI: 101 nM
[4]
  GI50: 176 nM
  TGI: 317 nM
[5]
  GI50: 157 nM
  TGI: 294 nM
[6]
  GI50: 165 nM
  TGI: 315 nM
[7]
  GI50: 179 nM
  TGI: 319 nM
[8]
  GI50: 132 nM
  TGI: 374 nM
[9]
  GI50: 163 nM
  TGI: 326 nM
[10]
  GI50: 363 nM
  TGI: 1390 nM
[11]
  GI50: 215 nM
  TGI: 437 nM
[12]
  GI50: 156 nM
  TGI: 291 nM
[13]
  GI50: 159 nM
  TGI: 296 nM
[14]
  GI50: 178 nM
  TGI: 318 nM
[15]
  GI50: 299 nM
  TGI: 1200 nM
[16]
  GI50: 175 nM
  TGI: 316 nM
[17]
  GI50: 186 nM
  TGI: 336 nM
[18]
  GI50: 126 nM
  TGI: 254 nM
[19]
  GI50: 202 nM
  TGI: 347 nM
[20]
  GI50: 177 nM
  TGI: 317 nM
[21]
  GI50: 148 nM
  TGI: 280 nM
[22]
  GI50: 165 nM
  TGI: 305 nM
[23]
  GI50: 165 nM
  TGI: 309 nM
[24]
  GI50: 357 nM
  TGI: 1090 nM
[25]
  GI50: 33.2 nM
  TGI: 138 nM
[26]
  GI50: 1100 nM
  TGI: 2290 nM
[27]
  GI50: 137 nM
  TGI: 268 nM
[28]
  GI50: 1310 nM
  TGI: 2590 nM
[29]
  GI50: 198 nM
  TGI: 439 nM
[30]
  GI50: 166 nM
  TGI: 303 nM
[31]
  GI50: 269 nM
  TGI: 434 nM
[32]
  GI50: 194 nM
  TGI: 503 nM
[33]
  GI50: 259 nM
  TGI: 1140 nM
[34]
  GI50: 172 nM
  TGI: 314 nM
[35]
  GI50: 293 nM
  TGI: 1200 nM
[36]
  GI50: 234 nM
  TGI: 818 nM
[37]
  GI50: 168 nM
  TGI: 306 nM
[38]
  GI50: 156 nM
  TGI: 295 nM
[39]
  GI50: 1030 nM
  TGI: 2210 nM
[40]
  GI50: 149 nM
  TGI: 283 nM
[41]
  GI50: 175 nM
  TGI: 322 nM
[42]
  GI50: 707 nM
  TGI: 2040 nM
[43]
  GI50: 37.5 nM
  TGI: 133 nM
[44]
  GI50: 160 nM
  TGI: 305 nM
[45]
  GI50: 153 nM
  TGI: 289 nM
[46]
  GI50: 55.8 nM
  TGI: 178 nM
[47]
  GI50: 220 nM
  TGI: 565 nM
[48]
  GI50: 168 nM
  TGI: 306 nM
[49]
  GI50: 1230 nM
  TGI: 2490 nM
[50]
  GI50: 190 nM
  TGI: 336 nM
[51]
  GI50: 236 nM
  TGI: 669 nM
[52]
  GI50: 141 nM
  TGI: 272 nM
[53]
  GI50: 1030 nM
  TGI: 2210 nM
[54]
  GI50: 156 nM
  TGI: 295 nM
[55]
  GI50: 175 nM
  TGI: 367 nM
[56]
  GI50: 215 nM
  TGI: 562 nM

Source: PubChem BioAssay (NCI)
